Measurements: patent US11897898B2, “Pyridine macrocycle compounds as ASK1 inhibiting agents” (BIOGEN MA INC., priority 2018, dated 2024)

Columns and labels:
[1] = target: T1, ASK1 T838 auto phosphorylation (Homo sapiens, UniProt Q99683); assay: ASK1 (AUTO PHOS T838) assay in HEK-293T cells, MSD format; assay type: cell-based; settings: HEK-293T cells transfected with ASK1-V5, 1 hr compound incubation; class symbols
T1 construct: ASK1-V5 tagged full length plasmid; expressed in transfected cells; host or cells: HEK-293T
T1 sequence (Q99683 1-1374): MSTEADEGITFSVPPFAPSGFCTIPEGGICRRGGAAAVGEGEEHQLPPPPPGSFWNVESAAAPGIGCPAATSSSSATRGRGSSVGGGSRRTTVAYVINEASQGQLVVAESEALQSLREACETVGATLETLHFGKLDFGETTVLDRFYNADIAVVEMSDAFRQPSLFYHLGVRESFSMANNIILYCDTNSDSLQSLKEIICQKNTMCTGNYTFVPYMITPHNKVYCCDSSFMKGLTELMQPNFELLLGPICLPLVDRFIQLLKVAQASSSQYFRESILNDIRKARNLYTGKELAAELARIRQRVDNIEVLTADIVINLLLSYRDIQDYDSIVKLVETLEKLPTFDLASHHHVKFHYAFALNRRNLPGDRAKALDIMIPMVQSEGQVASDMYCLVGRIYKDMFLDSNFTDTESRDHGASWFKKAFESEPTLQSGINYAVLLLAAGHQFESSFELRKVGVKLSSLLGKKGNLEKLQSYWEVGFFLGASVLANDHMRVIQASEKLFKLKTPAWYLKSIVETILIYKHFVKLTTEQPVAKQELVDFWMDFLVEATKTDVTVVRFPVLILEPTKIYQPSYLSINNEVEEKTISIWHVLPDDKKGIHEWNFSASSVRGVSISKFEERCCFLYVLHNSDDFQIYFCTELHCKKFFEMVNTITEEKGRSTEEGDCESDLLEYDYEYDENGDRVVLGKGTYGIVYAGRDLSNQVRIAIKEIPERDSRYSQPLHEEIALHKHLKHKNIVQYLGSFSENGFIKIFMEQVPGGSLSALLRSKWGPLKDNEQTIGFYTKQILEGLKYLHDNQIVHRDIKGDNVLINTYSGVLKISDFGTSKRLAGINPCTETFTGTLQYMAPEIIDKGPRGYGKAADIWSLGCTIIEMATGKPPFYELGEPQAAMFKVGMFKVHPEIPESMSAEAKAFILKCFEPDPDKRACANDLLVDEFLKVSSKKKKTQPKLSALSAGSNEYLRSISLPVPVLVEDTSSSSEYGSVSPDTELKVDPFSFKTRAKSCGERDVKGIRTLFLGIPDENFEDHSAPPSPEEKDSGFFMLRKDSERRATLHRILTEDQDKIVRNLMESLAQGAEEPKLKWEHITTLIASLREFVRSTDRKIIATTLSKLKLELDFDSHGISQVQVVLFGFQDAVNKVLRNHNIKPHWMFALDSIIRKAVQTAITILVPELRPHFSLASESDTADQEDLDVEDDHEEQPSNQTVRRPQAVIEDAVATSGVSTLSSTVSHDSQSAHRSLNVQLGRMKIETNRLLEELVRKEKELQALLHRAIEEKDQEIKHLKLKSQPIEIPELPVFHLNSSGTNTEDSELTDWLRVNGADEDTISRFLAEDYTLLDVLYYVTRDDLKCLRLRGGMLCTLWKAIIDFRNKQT
How it was run: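 HEK-293T cells transiently expressing full-length V5-tagged ASK1, treated 1 h at 37 °C with compound (top 20 µM, 3-fold, 10 points). Lysates captured on anti-V5 and probed with anti-pASK1 T838 in MSD electrochemiluminescence format. IC50 from 4-parameter fit of normalized % activity.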

ASK1/MAP3K5 = target: T2, ASK1/MAP3K5 (Homo sapiens, UniProt Q99683); assay: ASK1 enzyme assay (ASK1/MAP3K5 assay by Reaction Biology Corp., 33P-ATP filter-binding); assay type: biochemical; settings: 20 μM myelin basic protein and 10 μM ATP; class symbols
T2 construct: purchased Reaction Biology Corp. (Malvern, Pa.)
T2 sequence (Q99683 1-1374): T1 sequence (Q99683 1-1374)
How it was run: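 Human ASK1/MAP3K5 in pH 7.5 Hepes buffer with 20 μM myelin basic protein and 10 μM 33P-ATP; compounds preincubated with kinase 20 min at room temperature. Reaction ran 2 h at room temperature; substrate phosphorylation measured by P81 filter binding.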

## C[C@H]1CCCOc2ncc(-c3ccncc3)cc2C(=O)Nc2cccc(n2)-c2nncn21 [Compound 17, (S)-10-Methyl-5^5-(pyridin-4-yl)-1^4H-6-oxa-3-aza-2(2,6),5(3,2)-dipyridina-1(3,4)-triazolacyclodecaphan-4-one]
[1]
  IC50: ≤ 0.1 µM
ASK1/MAP3K5
  IC50: ≤ 0.1 µM

## C[C@H]1CCCOc2ncccc2C(=O)Nc2cccc(n2)-c2nncn21 (single isomer, unassigned) [Compound 4]
[1]
  IC50: 0.1 to 1 µM
ASK1/MAP3K5
  IC50: ≤ 0.1 µM

## C[C@H]1CCCOc2ncc(C#N)cc2C(=O)Nc2cccc(n2)-c2nncn21 [Compound 38, (S)-10-Methyl-4-oxo-1^4H-6-oxa-3-aza-2(2,6),5(3,2)-dipyridina-1(3,4)-triazolacyclodecaphane-5^5-carbonitrile]
[1]
  IC50: 0.1 to 1 µM
ASK1/MAP3K5
  IC50: ≤ 0.1 µM

## C[C@H]1CCCOc2ncc(C(F)(F)F)cc2C(=O)Nc2cccc(n2)-c2nncn21 (single isomer, unassigned) [Compound 41]
[1]
  IC50: 0.1 to 1 µM
ASK1/MAP3K5
  IC50: ≤ 0.1 µM

## C[C@H]1CCCOc2ncc(Br)cc2C(=O)Nc2cccc(n2)-c2nncn21 (single isomer, unassigned) [Compound 1]
[1]
  IC50: ≤ 0.1 µM
ASK1/MAP3K5
  IC50: ≤ 0.1 µM
